The values that follow come from US10717749B2, “Macrocyclic sulfondiimine compounds” (BAYER PHARMA AKTIENGESELLSCHAFT, priority 2015, dated 2020).

The series in a line: Thermodynamic solubility in water from powder (Method 4b). The format is physicochemical. The conditions noted are these: phosphate buffer, aqueous buffer, thermodynamic from solid; pH 6.5, Method 4b. The procedure: 4b) Thermodynamic Solubility in Water from Powder
The thermodynamic solubility of compounds in water was determined by an equilibrium shake flask method (see for example: E. H. Kerns, L. Di: Drug-like Properties: Concepts, Structure Design and Methods, 276-286, Burlington, Mass., Academic Press, 2008). A saturated solution of the drug was prepared and the solution was mixed for 24 h to ensure that equilibrium was reached. The solution was centrifuged to remove the insoluble fraction and the concentration of the compound in solution was determined using a standard calibration curve. To prepare the sample, 2 mg solid compound was weighed in a 4 mL glass vial. 1 mL phosphate buffer pH 6.5 was added. The suspension was stirred for 24 hrs at room temperature. The solution was centrifuged afterwards. To prepare the sample for the standard calibration, 2 mg solid sample was dissolved in 30 mL acetonitrile. After sonification the solution was diluted with water to 50 mL. Sample and standards were quantified by HPLC with UV-detection. For each sample two injection volumes (5 and 50 μl) in triplicates were made. Three injection volumes (5 μl, 10 μl and 20 μl) were made for the standard. […]
The areas of sample- and standard injections as well as the calculation of the solubility value (in mg/l) were determined by using HPLC software (Waters Empower 2 FR).

As usually defined, the solubility (thermodynamic) is the concentration in solution at equilibrium with solid.

Values after ≈ are worked out from the molar mass of the structure shown.

Turning to `CS(=N)(=N)Cc1cc2cc(c1)OCCCCOc1cc(F)ccc1-c1nc(ncc1F)N2` [Example 5, 16,20-difluoro-9-[(S-methylsulfonodiimidoyl)methyl]-2,3,4,5-tetrahydro-12H-13,17-(azeno)-11,7-(metheno)-1,6,12,14-benzodioxadiazacyclononadecine], the solubility (thermodynamic) at 24 h amounted to 58 µg/mL (≈ 126 µM).
